Tests used:
VEEV TC83 = test: microbe, parasite or virus in culture; assay type: cell-based; settings: Venezuelan equine encephalitis virus, Vero 76, 48 h, read-out: VEEV TC83 EC50 nM
WEEV California = test: microbe, parasite or virus in culture; assay type: cell-based; settings: Western equine encephalitis virus, Vero 76, 48 h, read-out: WEEV California EC50 nM

Compound | EC50 (VEEV TC83) [nM] | EC50 (WEEV California) [nM]
COc1ccc(-n2c(-c3cocn3)nc3c(-c4ccc(C)nc4)cc(C#N)cc3c2=O)cc1F [Example 197, 3-(3-fluoro-4-methoxyphenyl)-8-(6-methylpyridin-3-yl)-2-(oxazol-4-yl)-4-oxo-3,4-dihydroquinazoline-6-carbonitrile] | 501 to 1000 | > 1000
N#Cc1ccccc1-n1c([C@H]2CCCN2)nc2ccc([N+](=O)[O-])cc2c1=O [Example 22, (R)-2-(6-nitro-4-oxo-2-(pyrrolidin-2-yl)quinazolin-3 (4H)-yl)benzonitrile] | > 1000 | > 1000
COc1ccc(-n2c([C@H]3C[C@H](F)CN3)nc3c(C)cc([N+](=O)[O-])cc3c2=O)cc1F [Example 62, 2-((2R,4S)-4-fluoropyrrolidin-2-yl)-3-(3-fluoro-4-methoxyphenyl)-8-methyl-6-nitroquinazolin-4 (3H)-one] | 51 to 150 | 51 to 150
COc1ccc(-n2c(C3CCCN3)nc3c(C#Cc4ccc(C)nc4)cc(C#N)cc3c2=O)cc1F (stereo not drawn) [Example 194, 3-(3-Fluoro-4-methoxyphenyl)-8-((6-methylpyridin-3-yl)ethynyl)-4-oxo-2-(pyrrolidin-2-yl)-3,4-dihydroquinazoline-6-carbonitrile] | 51 to 150 | 51 to 150
COc1ccc(-n2c([C@@H]3CCN(C)C3)nc3c(C)cc([N+](=O)[O-])cc3c2=O)cc1F [Example 68, (R)-3-(3-fluoro-4-methoxyphenyl)-8-methyl-2-(1-methylpyrrolidin-3-yl)-6-nitroquinazolin-4 (3H)-one] | 151 to 500 | 151 to 500
O=c1c2cc([N+](=O)[O-])ccc2nc(C2CCCN2)n1-c1ccc(F)cc1 (stereo not drawn) [Example 42, 3-(4-fluorophenyl)-6-nitro-2-(pyrrolidin-2-yl)quinazolin-4 (3H)-one] | 51 to 150 | 151 to 500
COc1c(F)cc(-n2c(C3CCCN3)nc3c(-c4ccc(C(C)(C)O)cc4)cc(C#N)cc3c2=O)cc1F (stereo not drawn) [Example 171, 3-(3,5-difluoro-4-methoxyphenyl)-8-(4-(2-hydroxypropan-2-yl)phenyl)-4-oxo-2-(pyrrolidin-2-yl)-3,4-dihydroquinazoline-6-carbonitrile] | 51 to 150 | 51 to 150
Cc1cc(-c2cc(C#N)cc3c(=O)n(-c4cc(F)c(N5CC6(COC6)C5)c(F)c4)c(C4CCCN4)nc23)cc(C)n1 (stereo not drawn) [Example 163, 3-(3,5-difluoro-4-(2-oxa-6-azaspiro[3.3]heptan-6-yl)phenyl)-8-(2,6-dimethylpyridin-4-yl)-4-oxo-2-(pyrrolidin-2-yl)-3,4-dihydroquinazoline-6-carbonitrile] | > 1000 | > 1000
COc1ccc(-n2c([C@H]3CCCN3)nc3c(-c4cncc(F)c4)cc(C#N)cc3c2=O)cc1F [Example 106, (R)-3-(3-fluoro-4-methoxyphenyl)-8-(5-fluoropyridin-3-yl)-4-oxo-2-(pyrrolidin-2-yl)-3,4-dihydroquinazoline-6-carbonitrile] | 1 to 50 | 1 to 50
COc1ccc(-n2c([C@@H]3CCCN3C)nc3c(C)cc([N+](=O)[O-])cc3c2=O)cc1F [Example 70, (S)-3-(3-fluoro-4-methoxyphenyl)-8-methyl-2-(1-methylpyrrolidin-2-yl)-6-nitroquinazolin-4 (3H)-one] | 1 to 50 | 1 to 50
COc1ccc(-n2c([C@H]3CCCN3)nc3ccc(C#N)c(F)c3c2=O)cc1 [Example 73, (R)-5-fluoro-3-(4-methoxyphenyl)-4-oxo-2-(pyrrolidin-2-yl)-3,4-dihydroquinazoline-6-carbonitrile] | > 1000 | > 1000
COc1ccc(-n2c([C@H]3CC(F)(F)CN3)nc3c(-c4ccc(C)nc4)cc(C#N)cc3c2=O)cc1F [Example 184, (R)-2-(4,4-difluoropyrrolidin-2-yl)-3-(3-fluoro-4-methoxyphenyl)-8-(6-methylpyridin-3-yl)-4-oxo-3,4-dihydroquinazoline-6-carbonitrile] | 51 to 150 | 51 to 150
